Experiments:
[1] = Acute toxicity comparison (LD50, Litchfield and Wilcoxan); details: in vivo
Procedure: Toxicity in test animals to the test compounds in terms of LD50 after oral and intraperitoneal administration was determined according to the procedure of Litchfield and Wilcoxan (1949) and the hypnotic effect on test animals was determined in accordance with the method of Janssen (1959).

[2] = Modifications in the electrocorticogram (ECoG) of unanesthetized animals, R index; format: in vivo
Procedure: Twenty-four hours prior to the test, the surface of a test animal's skull was exposed and stainless steel electrodes were screwed through the lamina externa to make contact with the dura matter in the frontal, parietal and occipital regions, on both sides of the median and transverse sutures. The ECoG was recorded on a REEGA MINI HUIT (Alvar Electronic) encephalograph with a transverse circuit, with bi-frontal, bi-parietal and bi-occipital leads and a longitudinal circuit, with fronto-pariental and parieto-occipital leads on both left and right. One track was used to record respiration, with leads from two steel needles placed under the shin, on either side of the thorax.
Some test animals were kept in restraint cases placed in a relatively soundproof room and some were left free to move in metal cases measuring 40×50×30 cm, which were also kept in a relatively quiet environment.
The activity of the test compounds studied was judged on the one hand by the pattern of spontaneous electrogenesis, especially by the relative degree to which the three basic rhythms of the ECoG in the animals were represented; the theta rhythm (4-8 c/sec.), predominant and characteristic of the state of wakefulness in the posterior regions; bursts of rapid spiked waves (alpha rhythm, 9-15 c/sec.) recorded in the course of diffused wakefulness, and slow waves (delta rhythm, 0.5-3 c/sec.) which are absent in a state of wakefulness except in pathological conditions or in the presence of medicinal substances, a rhythm characteristic of slow-wave sleep. The rapid, low-voltage beta rhythm, not very characteristic of the ECoG in the test animals used and primarily superimposed on the other rhythms, was not analyzed.
Possible modifications in cortical reactivity were also investigated, using two types of stimulation, one comprised an auditory stimulus (whistle blasts) and the other a nociceptive stimulus delivered to the cutaneous nerve endings by pinching the dorsal skin with Kocher's clamps.
To the foregoing qualitative analysis, a quantitative analysis concerning the evolution of spontaneous electrogenesis under the influence of test compounds 1 and 4 was added. The activity of the two compounds was judged by variations in an "R" index, defined as the ratio between the theta waking rhythm, slow waves and bursts of rapid spiked waves. Initially, R was evaluated quantitatively on a scale from 0 to 4 and after this initial estimate, variations in the R index were rated on a scale from 0 to 5 as follows:
1. Maintenance of the value calculated in making the reference tracking (basal value) 0 since variation is nil.
2. Reduction in basal values
(a) reduction of basal value by one-half -1.
(b) observed value between 1/2 and 1/5 of basal value -2.
(c) observed value between 1/5 and 1/10 of basal value -3.
(d) observed value between 1/10 and 1/20 of basal value -4.
(e) observed value lower than 1/20 of basal value, reflecting maximum perturbation of spontaneous ECoG and expressing either a pathological condition or a state of slow-wave sleep, with the absence of theta rhythms and the exclusive presence of slow waves and/or bursts of rapid spiked waves -5.
Once the various values were allocated to each animal, the mean of these values were calculated for each experimental period. From these means, calculations were made of the percentages of variation as compared to a theoretical maximum value of -5 for each experimental period. The percentage for each period was calculated every 30 minutes for 7 hours, with a theoretical total of -10 per hour, then between 7 and 48 hours (theoretical total […]) and between the time of administering the test compound and the 48th hour (theoreticaltotal -90). Variations of 10% were not regarded as significant. All dosages were administered intragastrically through the esophageal tube. […]

[3] = Effect on muscular relaxation in mice (30° inclined screen, Randall); format: in vivo
Procedure: The method utilized was the procedure described by Randall (1961) using a 30° inclined screen.

[4] = 7.5 mg/kg intragastric, 2 Hours
[5] = 7.5 mg/kg intragastric, 3 Hours
[6] = 7.5 mg/kg intragastric, 4 Hours
[7] = 7.5 mg/kg intragastric, 5 Hours
[8] = 7.5 mg/kg intragastric, 6 Hours
[9] = 7.5 mg/kg intragastric, 7 Hours
[10] = 7.5 mg/kg intragastric, 48 Hours (7-48 h)
[11] = 7.5 mg/kg intragastric, After 48 Hours (0-48 h total)
[12] = 15.0 mg/kg intragastric, 1 Hour
[13] = 15.0 mg/kg intragastric, 2 Hours
[14] = 15.0 mg/kg intragastric, 3 Hours
[15] = 15.0 mg/kg intragastric, 4 Hours
[16] = 15.0 mg/kg intragastric, 5 Hours
[17] = 15.0 mg/kg intragastric, 6 Hours
[18] = 15.0 mg/kg intragastric, 7 Hours
[19] = 15.0 mg/kg intragastric, 48 Hours (7-48 h)
[20] = 15.0 mg/kg intragastric, After 48 Hours (0-48 h total)
[21] = 30.0 mg/kg intragastric, 1 Hour
[22] = 30.0 mg/kg intragastric, 2 Hours
[23] = 30.0 mg/kg intragastric, 3 Hours
[24] = 30.0 mg/kg intragastric, 4 Hours
[25] = 30.0 mg/kg intragastric, 5 Hours
[26] = 30.0 mg/kg intragastric, 6 Hours
[27] = 30.0 mg/kg intragastric, 7 Hours
[28] = 30.0 mg/kg intragastric, 48 Hours (7-48 h)
[29] = 30.0 mg/kg intragastric, After 48 Hours (0-48 h total)

C#CCN1C(=O)CN=C(c2ccccc2)c2cc(Cl)ccc21 [Compound 1, 7-chloro-2,3-dihydro-5-phenyl-1-propargyl-1H-1,4-benzodiazepin-2-one]
oral toxicity compared with Compounds 3 or 4 ([1]; po): lower oral toxicity | LD50 ([1]; Table 11, oral, species not given): 5820 mg/kg | duration of effect on spontaneous electrogenesis ([2]; 1.5 mg/kg): 2 h | latency of the effects ([2]; 1.5 mg/kg): 21 min | average duration of effect on spontaneous electrogenesis ([2]; 3.75 mg/kg): 4 h | R index variation, Mean ([2]; 7.5 mg/kg intragastric, 1 Hour): -7.5 | R index, % of Variation ([2]; 7.5 mg/kg intragastric, 1 Hour): -50.0% | R index variation, Mean [2, 4]: -6.0 | R index, % of Variation [2, 4]: -60.0% | R index variation, Mean [2, 5]: -4.5 | R index, % of Variation [2, 5]: -45.0% | R index variation, Mean [2, 6]: -4.0 | R index, % of Variation [2, 6]: -40.0% | R index variation, Mean [2, 7]: -3.0 | R index, % of Variation [2, 7]: -30.0% | R index variation, Mean [2, 8]: -2.0 | R index, % of Variation [2, 8]: -20.0% | R index variation, Mean [2, 9]: -1.5 | R index, % of Variation [2, 9]: -15.0% | R index variation, Mean [2, 10]: -0.5 | R index, % of Variation [2, 10]: -3.3% | R index variation, Mean [2, 11]: -29.0 | R index, % of Variation [2, 11]: -32.2% | R index variation, Mean [2, 12]: -11.5 | R index, % of Variation [2, 12]: -76.7% | R index variation, Mean [2, 13]: -7.0 | R index, % of Variation [2, 13]: -70.0% | R index variation, Mean [2, 14]: -5.5 | R index, % of Variation [2, 14]: -55.0% | R index variation, Mean [2, 15]: -5.5 | R index, % of Variation [2, 15]: -55.0% | R index variation, Mean [2, 16]: -4.0 | R index, % of Variation [2, 16]: -40.0% | R index variation, Mean [2, 17]: -2.0 | R index, % of Variation [2, 17]: -20.0% | R index variation, Mean [2, 18]: -2.0 | R index, % of Variation [2, 18]: -20.0% | R index variation, Mean [2, 19]: +1.5 | R index, % of Variation [2, 19]: +10.0% | R index variation, Mean [2, 20]: -36.0 | R index, % of Variation [2, 20]: -40.0% | Cortical reactivity induced by exteroceptive stimulation ([2]; 30 mg/kg): remained unchanged | R index variation, Mean [2, 21]: -8.66 | R index, % of Variation [2, 21]: -57.7% | R index variation, Mean [2, 22]: -6.99 | R index, % of Variation [2, 22]: -69.9% | R index variation, Mean [2, 23]: -6.99 | R index, % of Variation [2, 23]: -69.9% | R index variation, Mean [2, 24]: -6.33 | R index, % of Variation [2, 24]: -63.3% | R index variation, Mean [2, 25]: -4.33 | R index, % of Variation [2, 25]: -43.3% | R index variation, Mean [2, 26]: -1.32 | R index, % of Variation [2, 26]: -13.2% | R index variation, Mean [2, 27]: -0.99 | R index, % of Variation [2, 27]: -9.9% | R index variation, Mean [2, 28]: -1.66 | R index, % of Variation [2, 28]: -11.1% | R index variation, Mean [2, 29]: -37.3 | R index, % of Variation [2, 29]: -41.4% | duration of effects on spontaneous electrogenesis ([2]; 7.5, 15 and 30 mg/kg): at least 5 hours | % Relaxed Animals ([3]; 5 mg/kg/os): 10% | % Relaxed Animals ([3]; 10 mg/kg/os): 20% | % Relaxed Animals ([3]; 20 mg/kg/os): 50% | % Relaxed Animals ([3]; 40 mg/kg/os): 70% | ED50 ([3]; Mus musculus, po, muscular relaxation, read-out: ED50 (and C.L.)): 21.5 mg/kg | times less relaxant than compound 3 ([3]; mouse, in vivo): about 1.5 times | times less relaxant than compound 4 ([3]; mouse, in vivo): about 5.6 times

Source: patent publication US4313943A, “7-Chloro-2,3-dihydro-5-phenyl-1-propargyl-1H-1,4-benzodiazepine-2-one, and a pharmaceutical composition thereof” (priority 1972, dated 1982)
